Measured values as given in ChEMBL document CHEMBL4043175, “Tetrahydrobenzothiophene carboxamides: Beyond the kinase domain and into the fatty acid realm” (Bioorg Med Chem Lett, 2017).
Calls of active or inactive are those of the source. The rule behind the calls is not given here.

How the values were obtained:
[1] = target: T1, Stearoyl-CoA desaturase (Homo sapiens) (UniProt O00767); assay: Inhibition of SCD1 in human HepG2 cells assessed as decrease in 16:1/16:0 desaturase index after 72 hrs by gas chromatographic analysis; type: cell-based
T1 sequence (whole entry): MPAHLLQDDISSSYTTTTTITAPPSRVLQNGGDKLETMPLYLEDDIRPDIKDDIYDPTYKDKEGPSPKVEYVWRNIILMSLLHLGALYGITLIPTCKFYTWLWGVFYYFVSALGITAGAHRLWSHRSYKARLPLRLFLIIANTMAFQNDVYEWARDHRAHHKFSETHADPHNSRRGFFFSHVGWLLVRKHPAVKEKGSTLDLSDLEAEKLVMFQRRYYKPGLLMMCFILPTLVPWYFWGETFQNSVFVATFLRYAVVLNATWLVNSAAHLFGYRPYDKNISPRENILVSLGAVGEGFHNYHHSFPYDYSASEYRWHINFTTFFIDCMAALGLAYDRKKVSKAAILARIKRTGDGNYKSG

[2] = target: T1, Stearoyl-CoA desaturase (Homo sapiens); assay: Inhibition of SCD1 in human HepG2 cells assessed as decrease in 18:1/18:0 desaturase index after 72 hrs by gas chromatographic analysis; type: cell-based
[3] = target: T1, Stearoyl-CoA desaturase (Homo sapiens); assay: Inhibition of SCD1 in human HepG2 cells assessed as decrease in 18:1/18:0 desaturase index AT 10 uM after 72 hrs by gas chromatographic analysis; type: cell-based
[4] = target: T1, Stearoyl-CoA desaturase (Homo sapiens); assay: Inhibition of SCD1 in human HepG2 cells assessed as increase in cellular elongase index after 72 hrs by gas chromatographic analysis; type: cell-based
[5] = target: T1, Stearoyl-CoA desaturase (Homo sapiens); assay: Inhibition of SCD1 in human HepG2 cells assessed as increase in cellular elongase index at 10 uM after 72 hrs by gas chromatographic analysis; type: cell-based
[6] = target: T1, Stearoyl-CoA desaturase (Homo sapiens); assay: Inhibition of SCD1 in human HepG2 cells assessed as decrease in 16:1/16:0 desaturase index at 10 uM after 72 hrs by gas chromatographic analysis; type: cell-based
[7] = target: T1, Stearoyl-CoA desaturase (Homo sapiens); assay: Inhibition of SCD1 in human HepG2 cells assessed as decrease in cellular lipid accumulation at 1 uM after 48 hrs by Oil Red O staining-based assay; type: cell-based
[8] = target: T1, Stearoyl-CoA desaturase (Homo sapiens); assay: Inhibition of SCD1 in human HepG2 cells assessed as decrease in cellular lipid accumulation at 10 uM after 48 hrs by Oil Red O staining-based assay; type: cell-based
[9] = target: T1, Stearoyl-CoA desaturase (Homo sapiens); assay: Inhibition of SCD1 in human HepG2 cells assessed as decrease in cellular elongase index at 10 uM after 72 hrs by gas chromatographic analysis; type: cell-based
[10] = target: Tyrosine-protein kinase ABL1 (Homo sapiens) (UniProt P00519); assay: Inhibition of full-length recombinant human N-terminal His-tagged ABL expressed in baculovirus expression system at 10 uM by TR-FRET assay relative to control
[11] = target: Tyrosine-protein kinase JAK2 (Homo sapiens) (UniProt O60674); assay: Inhibition of recombinant human N-terminal His-tagged JAK2 catalytic domain (826 to 1132 residues) expressed in baculovirus expression system at 10 uM by TR-FRET assay relative to control
[12] = target: T1, Stearoyl-CoA desaturase (Homo sapiens); assay: Inhibition of SCD1 in human HepG2 cells assessed as decrease in 18:1/18:0 desaturase index at 1 uM after 72 hrs by gas chromatographic analysis; type: cell-based
[13] = target: T1, Stearoyl-CoA desaturase (Homo sapiens); assay: Inhibition of SCD1 in human HepG2 cells assessed as decrease in 16:1/16:0 desaturase index at 1 uM after 72 hrs by gas chromatographic analysis; type: cell-based
[14] = target: T1, Stearoyl-CoA desaturase (Homo sapiens); assay: Inhibition of SCD1 in human HepG2 cells assessed as increase in cellular elongase index at 1 uM after 72 hrs by gas chromatographic analysis; type: cell-based
[15] = target: Receptor-type tyrosine-protein kinase FLT3 (Homo sapiens) (UniProt P36888); assay: Inhibition of recombinant human N-terminal GST-tagged FLT3 cytoplasmic domain (564 to 993 residues) expressed in baculovirus expression system at 10 uM by TR-FRET assay relative to control
[16] = target: Macrophage colony-stimulating factor 1 receptor (Homo sapiens) (UniProt P07333); assay: Inhibition of recombinant human N-terminal GST-tagged FMS cytoplasmic domain (538 to 972 residues) expressed in baculovirus expression system at 10 uM by TR-FRET assay relative to control
Chain of Macrophage colony-stimulating factor 1 receptor (Homo sapiens) (P07333 whole entry, the tested form may be a part): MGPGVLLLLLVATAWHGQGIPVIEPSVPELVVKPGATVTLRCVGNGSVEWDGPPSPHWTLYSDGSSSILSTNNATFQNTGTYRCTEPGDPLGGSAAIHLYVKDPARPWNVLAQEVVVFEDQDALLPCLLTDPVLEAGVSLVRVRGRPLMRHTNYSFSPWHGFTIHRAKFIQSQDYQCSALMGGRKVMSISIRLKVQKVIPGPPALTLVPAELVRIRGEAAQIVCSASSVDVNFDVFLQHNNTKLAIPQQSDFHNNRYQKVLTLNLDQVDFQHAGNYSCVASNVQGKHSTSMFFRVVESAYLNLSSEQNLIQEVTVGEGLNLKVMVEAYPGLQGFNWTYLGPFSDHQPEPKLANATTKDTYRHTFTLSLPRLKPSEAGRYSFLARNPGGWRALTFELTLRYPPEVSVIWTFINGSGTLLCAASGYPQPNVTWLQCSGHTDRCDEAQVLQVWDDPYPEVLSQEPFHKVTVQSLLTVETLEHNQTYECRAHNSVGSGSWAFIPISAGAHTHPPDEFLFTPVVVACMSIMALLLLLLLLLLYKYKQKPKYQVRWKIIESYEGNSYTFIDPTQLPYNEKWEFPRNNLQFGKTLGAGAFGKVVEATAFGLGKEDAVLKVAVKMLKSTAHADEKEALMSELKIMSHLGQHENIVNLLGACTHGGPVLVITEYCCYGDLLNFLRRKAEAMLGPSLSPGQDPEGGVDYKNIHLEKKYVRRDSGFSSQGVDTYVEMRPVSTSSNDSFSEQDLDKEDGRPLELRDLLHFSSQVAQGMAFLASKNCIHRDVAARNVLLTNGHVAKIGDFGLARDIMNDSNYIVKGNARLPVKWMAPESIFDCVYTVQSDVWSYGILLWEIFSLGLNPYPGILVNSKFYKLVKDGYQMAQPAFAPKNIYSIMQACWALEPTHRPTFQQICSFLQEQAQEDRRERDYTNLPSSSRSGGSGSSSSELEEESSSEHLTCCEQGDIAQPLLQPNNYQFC

Chain of Tyrosine-protein kinase JAK2 (Homo sapiens) (O60674 whole entry, the tested form may be a part): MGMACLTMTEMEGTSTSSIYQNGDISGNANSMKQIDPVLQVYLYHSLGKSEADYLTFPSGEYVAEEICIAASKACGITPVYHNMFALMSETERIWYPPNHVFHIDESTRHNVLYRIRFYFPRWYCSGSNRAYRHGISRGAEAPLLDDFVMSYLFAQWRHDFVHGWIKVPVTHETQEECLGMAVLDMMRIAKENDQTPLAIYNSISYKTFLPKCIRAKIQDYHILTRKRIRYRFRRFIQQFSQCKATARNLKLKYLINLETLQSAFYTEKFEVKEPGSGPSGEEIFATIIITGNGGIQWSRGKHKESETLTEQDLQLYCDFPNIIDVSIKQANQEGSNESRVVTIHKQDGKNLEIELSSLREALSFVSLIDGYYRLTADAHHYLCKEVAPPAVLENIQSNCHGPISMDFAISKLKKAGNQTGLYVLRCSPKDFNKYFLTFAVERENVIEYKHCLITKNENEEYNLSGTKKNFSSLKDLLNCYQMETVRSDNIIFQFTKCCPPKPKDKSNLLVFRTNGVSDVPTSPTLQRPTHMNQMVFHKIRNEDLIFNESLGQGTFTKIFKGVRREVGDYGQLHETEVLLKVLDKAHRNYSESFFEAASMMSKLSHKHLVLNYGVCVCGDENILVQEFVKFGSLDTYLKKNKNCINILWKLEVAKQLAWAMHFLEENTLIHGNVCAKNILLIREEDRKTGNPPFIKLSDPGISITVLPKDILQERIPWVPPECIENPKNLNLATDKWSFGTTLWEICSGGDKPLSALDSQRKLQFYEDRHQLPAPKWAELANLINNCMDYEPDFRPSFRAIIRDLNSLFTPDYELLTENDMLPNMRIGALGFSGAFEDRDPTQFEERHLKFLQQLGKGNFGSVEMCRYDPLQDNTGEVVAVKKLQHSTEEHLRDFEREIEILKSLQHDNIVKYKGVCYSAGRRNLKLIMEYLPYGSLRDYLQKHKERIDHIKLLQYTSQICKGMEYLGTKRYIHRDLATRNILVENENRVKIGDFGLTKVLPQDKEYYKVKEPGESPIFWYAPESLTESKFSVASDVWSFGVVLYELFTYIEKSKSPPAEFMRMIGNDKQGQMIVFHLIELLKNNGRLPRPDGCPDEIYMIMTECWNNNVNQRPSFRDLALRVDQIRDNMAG
Chain of Tyrosine-protein kinase ABL1 (Homo sapiens) (P00519 whole entry, the tested form may be a part): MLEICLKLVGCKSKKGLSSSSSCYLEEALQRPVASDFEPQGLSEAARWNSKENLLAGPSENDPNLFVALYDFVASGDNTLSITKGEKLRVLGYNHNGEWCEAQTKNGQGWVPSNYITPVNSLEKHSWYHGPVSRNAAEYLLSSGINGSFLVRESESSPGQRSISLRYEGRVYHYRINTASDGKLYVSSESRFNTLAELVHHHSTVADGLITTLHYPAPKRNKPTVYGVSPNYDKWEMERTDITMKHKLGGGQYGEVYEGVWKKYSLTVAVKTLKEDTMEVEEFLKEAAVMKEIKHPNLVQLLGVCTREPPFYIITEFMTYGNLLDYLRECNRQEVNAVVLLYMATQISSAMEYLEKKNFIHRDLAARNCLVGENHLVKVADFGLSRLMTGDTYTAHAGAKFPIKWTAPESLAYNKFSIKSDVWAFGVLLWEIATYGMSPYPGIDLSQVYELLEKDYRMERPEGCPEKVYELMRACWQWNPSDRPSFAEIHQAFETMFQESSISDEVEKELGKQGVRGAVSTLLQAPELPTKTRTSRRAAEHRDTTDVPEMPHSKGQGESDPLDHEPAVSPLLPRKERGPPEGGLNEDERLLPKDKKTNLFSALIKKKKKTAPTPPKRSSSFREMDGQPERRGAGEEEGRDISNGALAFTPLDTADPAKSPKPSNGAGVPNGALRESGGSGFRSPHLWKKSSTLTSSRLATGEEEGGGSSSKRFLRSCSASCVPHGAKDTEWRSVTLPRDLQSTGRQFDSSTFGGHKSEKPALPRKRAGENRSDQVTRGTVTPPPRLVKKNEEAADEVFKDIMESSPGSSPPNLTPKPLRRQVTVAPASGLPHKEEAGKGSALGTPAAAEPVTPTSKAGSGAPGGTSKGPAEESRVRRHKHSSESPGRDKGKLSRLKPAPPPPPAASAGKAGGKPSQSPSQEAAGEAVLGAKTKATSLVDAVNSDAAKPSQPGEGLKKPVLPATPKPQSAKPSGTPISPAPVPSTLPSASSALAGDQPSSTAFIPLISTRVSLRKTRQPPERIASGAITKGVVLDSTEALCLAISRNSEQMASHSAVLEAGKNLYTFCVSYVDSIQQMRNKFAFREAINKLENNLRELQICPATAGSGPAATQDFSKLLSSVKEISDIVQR
Chain of Receptor-type tyrosine-protein kinase FLT3 (Homo sapiens) (P36888 whole entry, the tested form may be a part): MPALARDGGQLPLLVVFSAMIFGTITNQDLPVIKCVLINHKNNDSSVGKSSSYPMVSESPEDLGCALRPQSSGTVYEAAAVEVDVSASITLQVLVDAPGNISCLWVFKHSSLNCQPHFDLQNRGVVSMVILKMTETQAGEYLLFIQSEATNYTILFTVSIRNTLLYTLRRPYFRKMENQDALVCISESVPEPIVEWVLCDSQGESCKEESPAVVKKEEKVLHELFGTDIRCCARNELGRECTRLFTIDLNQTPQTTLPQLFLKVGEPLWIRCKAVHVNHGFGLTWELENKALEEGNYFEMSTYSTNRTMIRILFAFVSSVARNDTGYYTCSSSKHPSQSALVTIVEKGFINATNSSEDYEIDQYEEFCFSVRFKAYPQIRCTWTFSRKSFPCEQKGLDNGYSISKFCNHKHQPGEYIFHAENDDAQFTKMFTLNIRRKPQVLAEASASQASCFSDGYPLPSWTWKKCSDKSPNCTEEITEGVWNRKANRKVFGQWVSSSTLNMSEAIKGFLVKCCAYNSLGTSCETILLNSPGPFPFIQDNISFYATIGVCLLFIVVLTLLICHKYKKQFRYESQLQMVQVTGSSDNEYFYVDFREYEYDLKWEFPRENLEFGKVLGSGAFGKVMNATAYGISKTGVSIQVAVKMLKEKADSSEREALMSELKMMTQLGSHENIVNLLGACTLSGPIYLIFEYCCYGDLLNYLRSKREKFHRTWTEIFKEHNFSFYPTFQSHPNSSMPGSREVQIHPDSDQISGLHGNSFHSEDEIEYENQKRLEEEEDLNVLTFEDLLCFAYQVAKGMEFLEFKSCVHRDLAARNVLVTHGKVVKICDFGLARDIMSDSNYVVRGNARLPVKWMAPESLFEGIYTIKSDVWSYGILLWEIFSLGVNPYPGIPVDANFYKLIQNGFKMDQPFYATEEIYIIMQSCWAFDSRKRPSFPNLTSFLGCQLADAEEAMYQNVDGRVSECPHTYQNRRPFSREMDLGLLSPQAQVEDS

inhibition [1]	inhibition [2]	inhibition [3]	inhibition [5]	inhibition [6]	inhibition [9]	SMILES	other results
–	–	–	–	–	Active	CN(C)Cc1ccc(-c2nc3sc4c(c3c(=O)[nH]2)CCC(CO)C4)cc1 (stereo not given)	inhibition [8]: inactive
Dose-dependent effect	Dose-dependent effect	Active	Active	Active	–	NC(=O)c1c(NC(=O)c2ccc(CN3CCOCC3)cc2)sc2c1CCC(CO)C2 (stereo not given)	inhibition [10]: > 80%; inhibition [11]: 45%; inhibition [12]: Active; inhibition [8]: Active; inhibition [13]: Active; inhibition [14]: Active; inhibition [15]: > 80%; inhibition [16]: > 80%
–	–	–	inactive	–	–	NC(=O)c1c(NC(=O)c2ccc(CN3CCOCC3)cc2)sc2c1CCC(C(=O)O)C2 (stereo not given)	–
Dose-dependent effect	Dose-dependent effect	Active	Active	Active	–	O=c1[nH]c(-c2ccc(CN3CCOCC3)cc2)nc2sc3c(c12)CCC(CO)C3 (stereo not given)	–
–	–	–	–	–	Active	O=c1[nH]c(-c2ccc(CN3CCCCC3)cc2)nc2sc3c(c12)CCC(CO)C3 (stereo not given)	–
–	–	–	–	–	Active	CCOC(=O)C1CCc2c(sc(NC(=O)c3ccc(CN4CCOCC4)cc3)c2C(N)=O)C1 (stereo not given)	–
Dose-dependent effect	Dose-dependent effect	Active	Active	Active	–	NC(=O)c1c(NC(=O)c2ccc(CN3CCCCC3)cc2)sc2c1CCC(CO)C2 (stereo not given)	–
–	–	–	–	–	Active	O=c1[nH]c(-c2ccc(CN3CCS(=O)(=O)CC3)cc2)nc2sc3c(c12)CCC(CO)C3 (stereo not given)	–

The next lines start with the compound.

SMILES	inhibition [1]	inhibition [2]	inhibition [3]	inhibition [5]	inhibition [6]	inhibition [9]	other results
Cc1nnc(-c2ccc(N3CCC(Oc4cc(F)ccc4Cl)CC3)nn2)o1	Dose-dependent effect	Dose-dependent effect	Active	Active	Active	–	inhibition [4]: Dose-dependent effect; inhibition [7]: Active
NC(=O)c1c(NC(=O)c2ccc(CN3CCOCC3)cc2)sc2c1CCCC2	–	–	–	–	–	Active	–
NC(=O)c1c(NC(=O)c2ccc(CN3CCOCC3)cc2)sc2c1CCC(c1ccc(O)cc1)C2 (stereo not given)	–	–	–	inactive	–	–	–
NC(=O)c1c(N)sc2c1CCC(CO)C2 (stereo not given)	–	–	–	–	–	Active	–
NC(=O)c1c(NC(=O)c2ccc(CN3CCOCC3)cc2)sc2c1CCCC2CCO (stereo not given)	–	–	–	–	–	Active	–
NC(=O)c1c(NC(=O)c2ccc(CN3CCS(=O)(=O)CC3)cc2)sc2c1CCC(CO)C2 (stereo not given)	Dose-dependent effect	Dose-dependent effect	Active	Active	Active	–	–
CN(C)Cc1ccc(C(=O)Nc2sc3c(c2C(N)=O)CCC(CO)C3)cc1 (stereo not given)	Dose-dependent effect	Dose-dependent effect	Active	Active	Active	–	–
